From patent US12187705B2, “Heteroaryl-triazole and heteroaryl-tetrazole compounds as pesticides” (Bayer Aktiengesellschaft, priority 2018, dated 2025)

What was measured:
Format in all cases: in vivo
[1] = system: Ctenocephalides felis; test: Ctenocephalides felis in-vitro contact test adult cat flea; conditions: Ctenocephalides felis; 5 μg/cm^2 (=500 g/ha), after 48 hours; read-out: efficacy (fleas dead or moribund)
How it was run: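 Compound in acetone was coated on glass tube walls, giving 5 μg/cm^2 at 900 ppm. 5-10 adult cat fleas were held at room temperature for 48 h, then heat-challenged at 45-50° C. Fleas immotile or uncoordinated were scored dead/moribund, expressed as % efficacy.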

[2] = system: Myzus persicae; test: Myzus persicae oral test; conditions: 120 h
How it was run: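 Feeding test: compound diluted in water was combined with IPL41 insect medium (33%+15% sugar) under a parafilm seal. A mixed population of green peach aphids fed through the membrane. Mortality (%) was scored after 5 days.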

[3] = system: Nilaparvata lugens; test: Nilaparvata lugens spray test; conditions: Nilaparvata lugens, in Oryza sativa, 96 h
How it was run: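 Rice plants sprayed with compound diluted in water containing 1000 ppm emulsifier, then infested with brown planthopper. Mortality (%) scored after 4 days, 100% meaning all insects killed.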

[4] = system: Culex quinquefasciatus strain P00; test: Culex quinquefasciatus test (CULXFA surface treatment & contact assay); conditions: 24 hours after contact, read-out: efficacy (mortality); for mortality at 4 mg/m2: surface concentration 4 mg/m^2, 30 minutes exposure; for mortality at 20 mg/m2: surface concentration 20 mg/m^2, 30 minutes exposure
How it was run: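 Compound dissolved in acetone (2 mg/ml) with 2000 ppm rapeseed oil methyl ester, applied to glazed tile and dried. Adult strain P00 mosquitoes exposed to the surface for 30 minutes. Percent mortality scored 24 hours after contact.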

[5] = system: cattle ticks (Boophilus microplus) strane Parhurst, SP-resistant; test: Boophilus microplus dip test; conditions: 100 ppm, egg deposition after 7 days
Protocol: Boophilus microplus—Dip Test
Test animal: cattle ticks (Boophilus microplus) strane Parhurst, SP-resistant
Solvent: dimethyl sulfoxide
To produce a suitable preparation of active compound, 10 mg of active compound are dissolved in 0.5 ml solvent, and the concentrate is diluted with water to the desired concentration.
This compound solution is pipetted into tubes. 8-10 engorged, adult, female cattle ticks (Boophilus microplus) are placed in perforated tubes. These tubes are immersed in the aqueous compound solution until the ticks are completely moistened. After the liquid has drained off, the ticks are transferred to a filter paper in a plastic tray and stored in a climate chamber.
After 7 days egg deposition of fertile eggs is monitored. Eggs where fertility is not visible are stored in a climate chamber till hatching after about 42 days. An efficacy of 100% means all eggs are infertile; 0% means all eggs are fertile.

[6] = system: Anopheles funestus strain FUMOZ-R; test: Anopheles funestus test (ANPHFU surface treatment & contact assay); conditions: surface concentration 20 mg/m^2, 30 minutes exposure, 24 hours after contact, read-out: efficacy (mortality)
How it was run: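 Compound dissolved in acetone (2 mg/ml) with 2000 ppm rapeseed oil methyl ester, dried onto glazed tile; adult Anopheles funestus FUMOZ-R exposed for 30 minutes. Percent mortality scored 24 hours after contact.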

Compound | pest or weed control at 5 µg/cm2, 5 µg/cm2 [1] | mortality at 4 ppm [2] | mortality at 500 g/ha [3] | mortality at 4 mg/m2 [4] | mortality at 20 mg/m2 [4] | efficacy (infertile eggs) [5] | mortality at 20 mg/m2 [6]
CCN(C(=O)c1cc(Cl)cc(S(C)(=O)=O)c1)C(C)c1ncnn1-c1ncccn1 (stereo not drawn) [Example I-040, 3-chloro-N-ethyl-5-(methylsulfonyl)-N-{1-[1-(pyrimidin-2-yl)-1H-1,2,4-triazol-5-yl]ethyl}benzamide] | 100% | 100% | 100% | 80 to 100% | 80 to 100% |  | 
C[C@@H](NC(=O)c1cc(Cl)cc(S(=O)(=O)C2CC2)c1)c1ncnn1-c1ncccn1 [Example I-042] | 100% | 100% | 100% | 80 to 100% | 80 to 100% | 100% | 85 to 100%
